From patent US5753694A, “Anticonvulsant derivatives useful in treating amyotrophic lateral sclerosis (ALS)” (Ortho Pharmaceutical Corporation, priority 1997, dated 1998)
Read-outs that look alike come from different tables or passages of the source.

What was measured:
[1] = tested on: AMPA/kainate subtype of glutamate receptors; experiment: Antagonism of kainate-evoked currents, perforated whole-cell patch-clamp on primary cultures of hippocampal neurons; assay type: cell-based, rat; conditions: for EC50: cultured fetal rat hippocampal neurons
Experimental: Johnson Pharmaceutical Research Institute, Internal Research Reports, Document ID Accession Numbers A500,960 and 398533:1). In these studies, primary cultures enriched in neurons derived from the hippocampus of fetal rats were grown in vitro for 14 to 21 days under conditions that allowed them to reach a high density and develop numerous synaptic contacts. Perforated whole-cell patch-clamp procedures were used to study electrical properties of the neuronal membranes. In this procedure electrical contact between the recording electrode and the intracellular fluid is achieved by using amphotericin B to form pores in the cell membrane. This enables the cell membrane potential or current flow across the cell membrane to be recorded accurately. Kainate, topiramate and other test compounds were microperfused onto the neurons using a multi-barrel Teflon concentration clamp pipette. Topiramate (dissolved in DMSO at 1M, then diluted in the medium in which the neurons were incubated) was applied at concentrations of […] kainate was applied at concentrations 0.1 or 1 mM.
In an initial set of experiments, the antagonistic action of topiramate on kainate-evoked currents was determined as a function of the membrane potential.
The time-course of topiramate's antagonistic activity was evaluated in a second set of experiments. Kainate was pulsed into the bathing fluid for 3 sec at 1 min intervals, and once a baseline for the kainate-evoked current was established topiramate was applied constantly for a period ranging from a few min to 20 min. […] Concentration-response curves were generated for both phases of topiramate's blocking effect. The EC50 was approximately 1 micromolar for each phase. However, the concentration required for a maximum response was approximately 0.1 mM for the first phase (phase I block) but only approximately 0.010 mM for second (phase II block).
Because of the compelling evidence that the functional state of glutamate receptors is regulated partly by protein kinases and phosphatases (L. Y. WANG, F. A. TAVERNA, X. P. HUANG, J. F. MACDONALD, and D. R. HAMPSON, Science 259, 1173-1175, 1993), the phase II blocking effect could be explained by dephosphorylation of the kainate-activated receptors. Based on evidence that cAMP-dependent protein kinase (PKA) modulates kainate activated receptors(L. Y. WANG, F. A. TAVERNA, X. P. HUANG, J. F. MACDONALD, and D. R. HAMPSON, Science 259, 1173-1175, 1993), a set of experiments was undertaken to determine if dibutyryl cyclic AMP could restore the excitatory activity of kainate subsequent to topiramate's phase II block; i.e., cause the "irreversible" effect to be reversed. […] In another set of experiments the nonspecific phosphatase inhibitor okadaic acid was applied at 1 micromolar prior to, and during, the application of topiramate to determine if inhibiting the dephosphorylation of the kainate activated receptors would prevent the phase II blocking effect of topiramate.

[2] = tested on: rodent models of epilepsy; conditions: several rodent models of epilepsy; cited from earlier work
[3] = tested on: animal model of kindled epilepsy; conditions: cited from earlier work
human epilepsy = conditions: clinical trials of human epilepsy; cited from earlier work
[4] = 1 micromolar, prior to and during topiramate

SMILES: CC1(C)O[C@@H]2[C@@H](CO[C@@]3(COS(N)(=O)=O)OC(C)(C)O[C@@H]23)O1 [topiramate, 2,3:4,5-bis-O-(1-methylethylidene)-β-D-fructopyranosesulfamate]
- EC50 ([1]; phase I block (early, reversible), read-out: EC50 of block of kainate-evoked current, first phase (phase I block)): ~1000 nM
- EC50 ([1]; phase II block (constant application more than 10 min), read-out: EC50 of block of kainate-evoked current, second phase (phase II block)): ~1000 nM
- onset of partial block of kainate-evoked current ([1]; kainate pulsed 3 sec at 1 min intervals, topiramate applied constantly): evident within one min
- concentration required for a maximum response, phase I block ([1]; phase I block): approximately 0.1 mM
- concentration required for a maximum response, phase II block ([1]; phase II block): approximately 0.010 mM
- magnitude of antagonistic effect on kainate-induced membrane currents after prolonged application ([1]; topiramate applied constantly for more than 10 min): increased markedly
- kainate-evoked current after withdrawal following prolonged application ([1]; topiramate applied more than 10 min, then withdrawn): remained depressed
- reversibility of early block on washout ([1]; topiramate withdrawn (washed out) within 5 min): readily reversed
- dependence of antagonistic effect on membrane potential ([1]; voltage-clamped potentials -60 mV to +60 mV at 20 mV increments): most effective at membrane potentials near the resting state
- block of seizures [2]: effectively block seizures
- block of seizures [3]: effectively block seizures
- efficacy in simple and complex partial seizures and secondarily generalized seizures (human epilepsy): effective as adjunctive therapy or as monotherapy

SMILES: CCCC(=O)Nc1ncnc2c1ncn2[C@@H]1O[C@@H]2COP(=O)(O)O[C@H]2[C@H]1OC(=O)CCC [dibutyryl cyclic AMP]
- restoration of kainate-evoked current after topiramate's phase II block ([1]; applied subsequent to topiramate phase II block): partially or totally restored the kainate-evoked current

SMILES: C=C1[C@@H](O)[C@@H]2O[C@]3(CC[C@H](/C=C/[C@@H](C)[C@@H]4CC(C)=C[C@@]5(O[C@H](C[C@@](C)(O)C(=O)O)CC[C@H]5O)O4)O3)CC[C@H]2O[C@@H]1[C@@H](O)C[C@H](C)[C@H]1O[C@@]2(CCCCO2)CC[C@H]1C [okadaic acid]
- effect on kainate-evoked current prior to application of topiramate ([1]; 1 micromolar): little effect
- effect on topiramate's initial antagonistic effect (phase I block) [1, 4]: did not affect
- effect on topiramate's phase II block [1, 4]: phase II block was prevented
